Values after ≈ are worked out from the molar mass of the structure shown. Active and inactive are the calls of the source. The rule behind the calls is not given here.
Assays:
[1] = test system: Candida albicans; experiment: Antifungal activity against Candida albicans 90028 ATCC assessed as inhibition of growth at 0.06 ug/ml after 48 hrs relative to control; assay type: functional
[2] = test system: Candida albicans; experiment: Antifungal activity against Candida albicans 90028 ATCC assessed as inhibition of growth at 1 ug/ml after 48 hrs relative to control; assay type: functional
[3] = test system: Candida albicans; experiment: Antifungal activity against Candida albicans 90028 ATCC assessed as inhibition of growth at 4 ug/ml after 48 hrs relative to control; assay type: functional
[4] = test system: Candida albicans; experiment: Antifungal activity against Candida albicans 90028 ATCC assessed as inhibition of growth at 8 ug/ml after 48 hrs relative to control; assay type: functional
[5] = test system: Candida albicans; experiment: Antifungal activity against Candida albicans 90028 ATCC assessed as inhibition of growth at 0.12 ug/ml after 48 hrs relative to control; assay type: functional
[6] = test system: Candida albicans; experiment: Antifungal activity against Candida albicans 90028 ATCC assessed as inhibition of growth at 0.03 ug/ml after 48 hrs relative to control; assay type: functional
[7] = test system: Candida albicans; experiment: Antifungal activity against Candida albicans 90028 ATCC assessed as inhibition of growth at 0.5 ug/ml after 48 hrs relative to control; assay type: functional
[8] = test system: Candida albicans; experiment: Antifungal activity against Candida albicans 90028 ATCC assessed as inhibition of growth at 0.25 ug/ml after 48 hrs relative to control; assay type: functional
[9] = test system: Candida albicans; experiment: Antifungal activity against Candida albicans 90028 ATCC assessed as inhibition of growth at 2 ug/ml after 48 hrs relative to control; assay type: functional
[10] = test system: Candida albicans; experiment: Antifungal activity against Candida albicans 90028 ATCC assessed as inhibition of growth at 16 ug/ml after 48 hrs relative to control; assay type: functional
[11] = test system: Candida albicans; experiment: Antifungal activity against Candida albicans 90028 ATCC assessed as decrease in turbidity after 48 hrs relative to control; assay type: functional
[12] = test system: Candida albicans; experiment: Inhibition of Candida albicans kex delta CNA1 mutant adhesion to the Caco-2 cell line; assay type: functional, organism-based
[13] = test system: Candida albicans; experiment: Inhibition of Candida albicans bioflim formation during Caco2 cell invasion assessed as lack of hyphea at 1 ug/ml after 18 hrs by confocal laser scanning microscopy; assay type: functional, organism-based; settings: Caco-2
[14] = test system: Candida albicans; experiment: Antifungal activity against Candida albicans 90028 ATCC assessed as reduction in 99% growth after 48 hrs relative to control; assay type: functional
[15] = test system: Candida albicans; experiment: Inhibition of wild type Candida albicans adherence to Caco2 cells at 16 ug/ml after 18 hrs; assay type: functional; settings: Caco-2, 18 h
[16] = test system: Nakaseomyces glabratus; experiment: Inhibition of Candida glabrate 1010 with kex2 delta mutant and functional TRP1 adhesion to the Caco-2 cell line; assay type: organism-based
[17] = test system: Candida albicans; experiment: Inhibition of Candida albicans with loss of both copies KEX2 allele and both copies of URA3 CNA4 mutant adhesion to the Caco-2 cell line; assay type: functional, organism-based
[18] = test system: Candida albicans; experiment: Inhibition of Candida albicans with loss of one copy KEX2 allele and both copies of URA3 CNA2 mutant adhesion to the Caco-2 cell line; assay type: functional
[19] = Cytotoxicity against african green monkey Vero cells assessed as reduction in cell viability at 4 to 32 ug/mL after 6 hrs by XTT assay; assay type: cell-based; settings: chlorocebus sabaeus, read-out: INH
[20] = test system: Candida albicans; experiment: Inhibition of Candida albicans 1008 adhesion to the Caco-2 cell line; assay type: functional
[21] = test system: Candida albicans; experiment: Inhibition of Candida albicans 1008 with trp1/kex2 delta mutant adhesion to the Caco-2 cell line; assay type: functional
[22] = test system: Candida albicans; experiment: Inhibition of Candida albicans bioflim formation during Caco2 cell invasion assessed as sessile growth at 16 ug/ml after 18 hrs by confocal laser scanning microscopy; assay type: functional, organism-based; settings: Caco-2
[23] = test system: Candida albicans; experiment: Inhibition of Wild type Candida albicans SC5314 adhesion to the Caco-2 cell line; assay type: functional
[24] = test system: Vero; experiment: Cytotoxicity against african green monkey Vero cells assessed as reduction in cell viability at 2 to 0.125 ug/mL after 6 hrs by XTT assay; assay type: cell-based; settings: chlorocebus sabaeus
[25] = Cytotoxicity against african green monkey Vero cells assessed as reduction in cell viability at 64 to 256 ug/mL after 6 hrs by XTT assay; assay type: cell-based; settings: chlorocebus sabaeus, read-out: INH

SMILES	MIC [11] [µg/mL]	inhibition at 0.06 µg/mL [1] [%]	inhibition at 1 µg/mL [2] [%]	inhibition at 4 µg/mL [3] [%]	inhibition at 8 µg/mL [4] [%]	inhibition at 0.12 µg/mL [5] [%]	inhibition at 0.03 µg/mL [6] [%]	inhibition at 0.5 µg/mL [7] [%]	inhibition at 0.25 µg/mL [8] [%]	inhibition at 2 µg/mL [9] [%]	inhibition at 16 µg/mL [10] [%]	also measured
CC(=O)OC(C)Cn1nnc(-c2ccccc2Cl)n1 (racemic)	–	98.9	99	99	99	99	98.9	99	99	99	99	inhibition [12]: inactive; inhibition [13]: inactive; MFC [14]: 0.0313 µg/mL (≈ 0.112 µM); inhibition at 16 µg/mL [15]: 86%; inhibition [16]: inactive; inhibition [17]: inactive; inhibition (INH) [18]: 91%; cytotoxicity at 6 h [19]: 4%; inhibition (INH) [20]: 42.3%; inhibition (INH) [21]: 82.89%; Activity [22]: inactive; inhibition (INH) [23]: 86%; Activity [24]: Non-toxic; cytotoxicity at 6 h [25]: 13%
Cc1ccc(-c2nnn(CC(C)O)n2)cc1 (racemic)	–	99	98.8	98.9	98.9	98.9	98.9	98.9	99	98.9	98.8	–
CC(O)Cn1nnc(-c2ccccc2)n1 (racemic)	–	98.8	98.8	98.9	98.9	98.7	98.8	98.7	98.7	98.8	98.8	–
CC(O)CCn1nnc(-c2ccccc2Cl)n1 (racemic)	8 (≈ 31.7 µM)	98.9	99	99	99	99	98.8	99	98.9	98.9	99	–
C[C@@H]1[C@H](O)[C@@H](C)/C=C/C=C/C=C/C=C/C=C/C=C/C=C/[C@H](O[C@@H]2O[C@H](C)[C@@H](O)[C@H](N)[C@@H]2O)C[C@@H]2O[C@](O)(C[C@@H](O)C[C@@H](O)[C@H](O)CC[C@@H](O)C[C@@H](O)CC(=O)O[C@H]1C)C[C@H](O)[C@H]2C(=O)O [AMPHOTERICIN B]	–	–	–	–	–	–	–	100	–	–	–	–
CC(O)Cn1nnc(-c2ccccc2Cl)n1 (racemic)	0.125 (≈ 0.524 µM)	99	99	99	99	99	98.9	99.1	99	98.9	98.9	–

Further lines, with some results ahead:

MIC [11] [µg/mL]	SMILES	inhibition at 0.06 µg/mL [1] [%]	inhibition at 1 µg/mL [2] [%]	inhibition at 4 µg/mL [3] [%]	inhibition at 8 µg/mL [4] [%]	inhibition at 0.12 µg/mL [5] [%]	inhibition at 0.03 µg/mL [6] [%]	inhibition at 0.5 µg/mL [7] [%]	inhibition at 0.25 µg/mL [8] [%]	inhibition at 2 µg/mL [9] [%]	inhibition at 16 µg/mL [10] [%]	also measured
4 (≈ 13.6 µM)	CC(=O)OC(C)CCn1nnc(-c2ccccc2Cl)n1 (racemic)	98.9	98.9	99	99	98.9	98.9	98.9	98.9	98.9	98.9	–
0.5 (≈ 1.92 µM)	CC(=O)OC(C)Cn1nnc(-c2ccc(C)cc2)n1 (racemic)	98.9	99.1	99.1	99	99	98.7	99	98.9	99	99	–
4 (≈ 15.4 µM)	CC(=O)OC(C)CCn1nnc(-c2ccccc2)n1 (racemic)	98.9	98.9	99	99	98.9	98.9	98.9	99	98.9	98.8	–
4 (≈ 14.6 µM)	CC(=O)OC(C)CCn1nnc(-c2ccc(C)cc2)n1 (racemic)	98.9	98.9	99	99	98.9	98.9	98.9	99	99	98.9	–
4 (≈ 17.2 µM)	Cc1ccc(-c2nnn(CCC(C)O)n2)cc1 (racemic)	99	98.9	99	98.9	98.9	98.9	98.9	98.9	98.9	98.9	–
0.125 (≈ 0.573 µM)	CC(O)CCn1nnc(-c2ccccc2)n1 (racemic)	98.9	99	99	98.9	99	98.8	99	99	98.9	98.9	–

Reference: ChEMBL document CHEMBL3588797, “Tetrazole activity against Candida albicans. The role of KEX2 mutations in the sensitivity to (±)-1-[5-(2-chlorophenyl)-2H-tetrazol-2-yl]propan-2-yl acetate” (Bioorg Med Chem Lett, 2015)
